In ChEMBL document CHEMBL1201862, “PubChem BioAssay data set” (2004):
Calls of active or inactive are those of the source. Cut-off read from the data, not from the text of the source, for most assays here: actives have a measured EC50 and inactives only a lower limit.

Assays:
[1] = HEp-2 cell cytotoxicity, dose response, cytotoxicity control for RSV inhibitor project, HTS (AID 2410); format: functional; details: human respiratory syncytial virus
[2] = molecular target: T1, Replicative DNA helicase DnaB (Mycobacterium tuberculosis, UniProt P9WMR3); test: DnaB intein splicing inhibitors, dose response, biochemical, cell-free fluorescence (AID 449749); format: functional
T1 sequence (P9WMR3 whole entry): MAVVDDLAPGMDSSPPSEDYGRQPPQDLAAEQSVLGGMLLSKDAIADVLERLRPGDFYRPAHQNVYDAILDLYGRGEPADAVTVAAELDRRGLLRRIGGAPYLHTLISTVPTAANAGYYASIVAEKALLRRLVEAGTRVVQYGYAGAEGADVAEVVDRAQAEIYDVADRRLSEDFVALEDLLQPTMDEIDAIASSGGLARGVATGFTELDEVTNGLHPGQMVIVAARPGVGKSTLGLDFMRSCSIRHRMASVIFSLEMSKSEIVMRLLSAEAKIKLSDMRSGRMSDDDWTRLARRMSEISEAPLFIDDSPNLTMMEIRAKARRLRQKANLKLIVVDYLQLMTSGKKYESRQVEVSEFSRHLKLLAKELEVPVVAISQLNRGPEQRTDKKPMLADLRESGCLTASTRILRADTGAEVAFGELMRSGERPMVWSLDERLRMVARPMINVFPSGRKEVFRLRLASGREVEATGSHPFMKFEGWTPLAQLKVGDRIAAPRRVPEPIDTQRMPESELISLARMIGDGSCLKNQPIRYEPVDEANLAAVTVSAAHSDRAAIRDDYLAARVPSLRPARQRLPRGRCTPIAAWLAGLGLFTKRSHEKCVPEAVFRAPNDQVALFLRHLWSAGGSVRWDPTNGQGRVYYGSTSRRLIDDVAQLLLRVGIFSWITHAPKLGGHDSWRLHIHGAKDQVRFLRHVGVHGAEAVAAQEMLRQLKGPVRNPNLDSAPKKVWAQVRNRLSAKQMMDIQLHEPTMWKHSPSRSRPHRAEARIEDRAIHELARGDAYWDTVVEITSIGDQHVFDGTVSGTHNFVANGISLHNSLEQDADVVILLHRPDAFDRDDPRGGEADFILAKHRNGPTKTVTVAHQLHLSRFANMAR

Protein RecA = molecular target: T2, Protein RecA (Mycobacterium tuberculosis, UniProt P9WHJ3); test: Fluorescence Cell-Free Homogeneous Dose Retest to Identify Inhibitors of RecA-Intein Splicing Activity. [Related pubchem assays (depositor defined):AID2097, AID2223, AID489010, AID492950]; format: functional
T2 sequence (P9WHJ3 whole entry): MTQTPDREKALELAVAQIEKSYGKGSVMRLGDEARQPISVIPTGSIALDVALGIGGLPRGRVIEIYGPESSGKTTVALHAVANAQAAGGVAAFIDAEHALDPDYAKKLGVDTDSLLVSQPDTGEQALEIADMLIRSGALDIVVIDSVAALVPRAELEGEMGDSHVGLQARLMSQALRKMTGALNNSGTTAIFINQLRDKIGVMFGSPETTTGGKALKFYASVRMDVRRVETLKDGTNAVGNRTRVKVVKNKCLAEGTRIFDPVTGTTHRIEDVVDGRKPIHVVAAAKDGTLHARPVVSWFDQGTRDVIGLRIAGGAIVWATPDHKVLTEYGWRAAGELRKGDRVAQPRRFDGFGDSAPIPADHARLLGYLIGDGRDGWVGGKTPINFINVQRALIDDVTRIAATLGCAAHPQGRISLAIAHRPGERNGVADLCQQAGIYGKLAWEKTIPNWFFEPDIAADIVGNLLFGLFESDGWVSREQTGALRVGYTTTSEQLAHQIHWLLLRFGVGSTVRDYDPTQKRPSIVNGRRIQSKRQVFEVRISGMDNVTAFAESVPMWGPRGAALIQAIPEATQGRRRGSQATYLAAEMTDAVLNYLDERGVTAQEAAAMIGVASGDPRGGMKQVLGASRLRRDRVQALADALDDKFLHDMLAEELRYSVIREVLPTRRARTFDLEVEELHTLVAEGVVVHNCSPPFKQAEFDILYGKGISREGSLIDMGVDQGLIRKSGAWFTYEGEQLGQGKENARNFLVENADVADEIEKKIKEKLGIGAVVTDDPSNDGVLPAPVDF

[3] = molecular target: T3, RNA-binding protein pos-1 (Caenorhabditis elegans, UniProt G5EF15); test: inhibitors of POS-1/mex-3 RNA binding, dose response, biochemical, fluorescence polarization (AID 1964);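 note: purified POS-1 fused to maltose binding protein made in E. coli; potency of compounds blocking POS-1 binding to fluorescent RNA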
T3 sequence (G5EF15 whole entry): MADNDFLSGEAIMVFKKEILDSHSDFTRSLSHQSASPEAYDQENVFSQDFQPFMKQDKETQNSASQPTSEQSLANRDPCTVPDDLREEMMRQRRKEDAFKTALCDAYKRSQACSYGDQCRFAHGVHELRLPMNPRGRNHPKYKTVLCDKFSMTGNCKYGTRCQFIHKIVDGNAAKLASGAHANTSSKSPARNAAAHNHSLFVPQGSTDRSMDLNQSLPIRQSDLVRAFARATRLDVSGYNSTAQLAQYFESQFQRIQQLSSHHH

[4] = molecular target: T4, Zinc finger protein mex-5 (Caenorhabditis elegans, UniProt Q9XUB2); test: MEX-5/TCR-2 RNA interaction inhibitors, dose response, biochemical, C. elegans, fluorescence polarization (AID 1960)
T4 sequence (Q9XUB2 whole entry): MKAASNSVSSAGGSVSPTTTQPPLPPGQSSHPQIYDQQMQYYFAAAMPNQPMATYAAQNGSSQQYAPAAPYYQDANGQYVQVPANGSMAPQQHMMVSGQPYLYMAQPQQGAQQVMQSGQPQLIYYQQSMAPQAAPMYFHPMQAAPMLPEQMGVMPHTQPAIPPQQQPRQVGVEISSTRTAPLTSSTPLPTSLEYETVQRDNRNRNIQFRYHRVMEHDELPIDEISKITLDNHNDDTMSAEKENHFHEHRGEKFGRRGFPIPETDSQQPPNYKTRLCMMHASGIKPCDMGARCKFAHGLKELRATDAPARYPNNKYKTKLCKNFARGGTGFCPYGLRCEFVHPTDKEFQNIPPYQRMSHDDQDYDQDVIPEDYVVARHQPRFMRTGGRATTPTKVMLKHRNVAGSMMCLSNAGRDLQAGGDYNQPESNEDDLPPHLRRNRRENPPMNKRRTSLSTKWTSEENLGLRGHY

[5] = molecular target: T5, Corticotropin-releasing factor receptor 2/Corticotropin-releasing factor-binding protein (Homo sapiens, UniProt P24387+Q13324); test: activators of CRF receptor 2 with binding protein – uHTS hits, confirmation (AID 602473); format: functional; details: read-out: EC50_Mean
T5 sequence (Q13324 whole entry): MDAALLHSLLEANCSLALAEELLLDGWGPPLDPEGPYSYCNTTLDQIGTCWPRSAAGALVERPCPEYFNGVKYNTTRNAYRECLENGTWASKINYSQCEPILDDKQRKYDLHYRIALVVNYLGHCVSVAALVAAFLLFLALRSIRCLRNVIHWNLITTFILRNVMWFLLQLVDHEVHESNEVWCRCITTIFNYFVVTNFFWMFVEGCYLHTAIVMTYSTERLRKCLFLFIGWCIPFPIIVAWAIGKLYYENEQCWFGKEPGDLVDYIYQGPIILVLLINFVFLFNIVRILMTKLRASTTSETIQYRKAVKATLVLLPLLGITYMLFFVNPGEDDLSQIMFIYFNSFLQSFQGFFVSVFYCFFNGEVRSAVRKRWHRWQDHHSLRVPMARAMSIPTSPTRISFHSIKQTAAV
T5 sequence (P24387 whole entry): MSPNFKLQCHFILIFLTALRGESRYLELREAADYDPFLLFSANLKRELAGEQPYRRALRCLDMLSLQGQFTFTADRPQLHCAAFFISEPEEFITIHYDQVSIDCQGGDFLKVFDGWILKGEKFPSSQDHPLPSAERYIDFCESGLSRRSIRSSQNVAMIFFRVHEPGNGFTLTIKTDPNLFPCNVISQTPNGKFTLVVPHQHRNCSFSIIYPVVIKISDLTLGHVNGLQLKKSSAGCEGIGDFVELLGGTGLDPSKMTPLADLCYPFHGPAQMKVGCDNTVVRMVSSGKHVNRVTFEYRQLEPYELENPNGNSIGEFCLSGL

[6] = molecular target: T5, Corticotropin-releasing factor receptor 2/Corticotropin-releasing factor-binding protein; test: Dose Response confirmation of uHTS hits for small molecule antagonists of the CRF-binding protein and CRF-R2 receptor complex.; format: functional; details: read-out: IC50_Mean
[7] = molecular target: T6, Heat shock factor protein 1 (Mus musculus, UniProt P38532); test: inhibition of MG132-induced HSE-luciferase signal, confirmation, cell-based, NIH3T3, luminescence, dose retest (AID 2382); format: functional;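 note: NIH3T3 fibroblasts with HSF1-driven luciferase reporter stressed by proteasome inhibitor MG132; luminescence from HSF1-driven luciferase expression after 8 hours of MG132 stress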
T6 sequence (P38532 whole entry): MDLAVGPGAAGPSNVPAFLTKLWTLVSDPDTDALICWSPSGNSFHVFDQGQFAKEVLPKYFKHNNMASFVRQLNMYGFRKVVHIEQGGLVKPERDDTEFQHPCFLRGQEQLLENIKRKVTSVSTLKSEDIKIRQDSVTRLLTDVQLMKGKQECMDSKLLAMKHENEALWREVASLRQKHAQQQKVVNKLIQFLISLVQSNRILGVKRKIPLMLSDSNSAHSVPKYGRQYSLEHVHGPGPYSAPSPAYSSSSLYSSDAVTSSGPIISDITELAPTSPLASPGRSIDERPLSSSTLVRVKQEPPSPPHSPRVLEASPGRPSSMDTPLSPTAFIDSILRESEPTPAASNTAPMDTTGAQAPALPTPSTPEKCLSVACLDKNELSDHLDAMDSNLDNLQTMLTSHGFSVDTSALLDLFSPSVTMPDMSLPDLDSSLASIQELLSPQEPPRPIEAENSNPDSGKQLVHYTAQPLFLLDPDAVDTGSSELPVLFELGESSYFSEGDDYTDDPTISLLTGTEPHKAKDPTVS

Compound: CC(Oc1ccc(Cl)cc1Cl)C(=O)Nc1cccc(O)c1 (stereo not drawn)
- CC50 [1]: 27.2 µM (active)

Compound: O=C1NC2=C(CCc3ccccc32)C(c2ccccc2)N1 (stereo not drawn)
- AC50 [2]: 2.19 µM (active)
- EC50 (Protein RecA): 1.67 µM (active)

Compound: Cc1nn(-c2ccccc2)c2c1C1(C(=O)N3c4c(cccc41)C(C)CC3(C)C)C(C#N)=C(N)O2 (stereo not drawn)
- AC50 [2]: 4.61 µM (active)
- EC50 (Protein RecA): 3.2 µM (active)

Compound: CCOP(=O)(OCC)C(Nc1cccc([N+](=O)[O-])c1)c1ccccc1 (stereo not drawn)
- EC50 [3]: > 300 µM (not active)
- EC50 [4]: > 300 µM (not active)
- EC50 [5]: > 53 µM (inactive)
- IC50 [6]: > 47.1 µM (inactive)

Compound: Cc1c(-c2nc[nH]n2)sc(C#N)c1-c1ccccc1
- CC50 [1]: 24.4 µM (active)
- EC50 [5]: > 53 µM (inactive)
- IC50 [6]: > 47.1 µM (inactive)

Compound: CC1=C(C#N)C(=O)N(C)C(=O)/C1=C\NNc1ccc(F)cc1
- EC50 [3]: > 300 µM (not active)
- EC50 [4]: > 300 µM (not active)

Compound: COC(=O)CCCC1=CC2=CC(=O)C(C)(OC(=O)C3CCCC3)C(=O)C2=CO1 (stereo not drawn)
- EC50 [3]: 23.3 µM (active)
- EC50 [4]: 57.7 µM (inconclusive)

Compound: CCc1ccc(C2=NNC(=Nc3c(C)n(C)n(-c4ccccc4)c3=O)SC2)cc1
- CC50 [1]: 20.1 µM (active)

Compound: CC1=Nc2ccc(C)c3nc(C)cc(c23)N1c1ccc(C)cc1
- CC50 [1]: > 50 µM (active)
- EC50 [7]: > 195 µM (not active)

Compound: CSc1cccc(NC(=O)N2CCc3ccc(NC(=O)c4ccccn4)cc3C2)c1
- CC50 [1]: 14.4 µM (active)

Compound: Cc1ccccc1OCCNC(=O)c1ccc2ccccc2n1
- CC50 [1]: 24.5 µM (active)

Compound: N#Cc1ccc(CN2CCN(CC(=O)NCCc3ccc(Cl)cc3Cl)CC2)cc1
- CC50 [1]: 22.9 µM (active)

Compound: CC(=O)c1c(O)cc(O)cc1CC(=O)O
- EC50 [3]: > 300 µM (inconclusive)
- EC50 [4]: 190 µM (inconclusive)

Compound: COc1ccc(/C(C)=N/Nc2nc3ccccc3nc2C)cc1OC
- EC50 [3]: 5.07 µM (inconclusive)
- EC50 [4]: 66.5 µM (inconclusive)

Compound: Cc1n[nH]c(-c2ccc(OCc3cnn(-c4ccccc4)c3)c(C)c2O)c1Oc1ccccc1
- CC50 [1]: 14.6 µM (active)

Compound: N#Cc1c(N)n(-c2cccc(C(=O)O)c2)c2nc3ccccc3nc12
- EC50 [3]: > 300 µM (not active)
- EC50 [4]: > 300 µM (not active)
- EC50 [5]: 13.7 µM (active)
- IC50 [6]: > 47.1 µM (inactive)

Compound: O=C(NC(NC(=S)Nc1ccc(Cl)cc1Cl)C(Cl)(Cl)Cl)c1cccc([N+](=O)[O-])c1 (stereo not drawn)
- AC50 [2]: 2.33 µM (active)
- EC50 (Protein RecA): 3.3 µM (active)

Compound: O=C(CSc1nnc(-c2ccccc2Cl)o1)Oc1ccc(Br)cc1
- AC50 [2]: 1.42 µM (active)
- EC50 (Protein RecA): 3 µM (active)

Compound: CSc1ccc(/C=N/n2nnnc2N)cc1
- CC50 [1]: 48.5 µM (active)

Compound: CC1(C)C(=O)NCCN1C(=O)CSc1nccc(-c2ccc(Br)cc2)n1
- CC50 [1]: 34.1 µM (active)

Compound: CCCCN1C(=O)C(CC(=O)NCC)S/C1=N/c1ccccc1 (stereo not drawn)
- EC50 [7]: > 195 µM (not active)

Compound: Cc1c(OCC(=O)NCC(O)c2ccccc2)ccc2c3c(c(=O)oc12)CCCC3 (stereo not drawn)
- CC50 [1]: 48.5 µM (active)

Compound: CCOC(=O)Nc1ccccc1C(=O)Nc1cc(C)cc(C)c1
- EC50 [7]: > 195 µM (not active)

Compound: Cc1nc2ccccc2c2c1C(=O)N(C(C)C)C2=O
- AC50 [2]: 192 µM (active)
- EC50 (Protein RecA): 0.851 µM (active)

Compound: COC(=O)CNc1cccc(C(F)(F)F)c1
- EC50 [3]: > 300 µM (not active)
- EC50 [4]: > 300 µM (not active)

Compound: COc1ccc(CCNC(=O)CN(c2ccc(OC)c(OC)c2)S(C)(=O)=O)cc1OC
- EC50 [7]: > 195 µM (not active)

Compound: CC(=O)Nc1ccc(S(=O)(=O)NCc2csc(C)n2)cc1
- EC50 [7]: > 195 µM (not active)

Compound: O=C1N=C(Nc2cccc(O)c2)S/C1=C\c1cccc([N+](=O)[O-])c1
- CC50 [1]: > 50 µM (active)

Compound: N#C/C(=C\Nc1ccc2c[nH]nc2c1)c1nc(-c2ccccc2)cs1
- EC50 [7]: > 195 µM (not active)
